Test results from article PMC7515921, “MFSD7C switches mitochondrial ATP synthesis to thermogenesis in response to heme” (Nature Communications, 2020).

Target: T1, MFSD7C (major facilitator superfamily domain containing 7C; FLVCR2; SLC49A2) (Homo sapiens, UniProt Q9UPI3)
T1 construct: N-terminal domain (NTD), amino acids 1–84
T1 sequence (Q9UPI3 1-84): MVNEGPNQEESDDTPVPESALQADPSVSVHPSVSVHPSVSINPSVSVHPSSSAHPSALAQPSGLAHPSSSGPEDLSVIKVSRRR
Test: ITC with purified NTD; also heme absorbance-shift (Soret/Q band) and gel-filtration co-elution
Assay type: binding

## C=CC1=C(C)C2=Cc3c(C=C)c(C)c4[n]3[Fe][n]3c(c(C)c(CCC(=O)O)c3=CC3=NC(=C4)C(C)=C3CCC(=O)O)=CC1=N2 [heme]
  Kd: ~1000 nM
